The target in series [1] is Sodium-dependent dopamine transporter (Homo sapiens, UniProt Q01959). In words: DRUGMATRIX: Dopamine Transporter radioligand binding (ligand: [125I] RTI-55). It counts as cell membranes, CHO-K1, Membrane. The following applies: Not Active = under 50% inhibition at 10 µM; for Ki: read-out: Ki.
For series [2], the target named is T1, Endothelin-1 receptor (Homo sapiens, UniProt P25101). Further: in other assays of this panel Not Active means under 50% inhibition at 10 µM.
T1 sequence (P25101 whole entry): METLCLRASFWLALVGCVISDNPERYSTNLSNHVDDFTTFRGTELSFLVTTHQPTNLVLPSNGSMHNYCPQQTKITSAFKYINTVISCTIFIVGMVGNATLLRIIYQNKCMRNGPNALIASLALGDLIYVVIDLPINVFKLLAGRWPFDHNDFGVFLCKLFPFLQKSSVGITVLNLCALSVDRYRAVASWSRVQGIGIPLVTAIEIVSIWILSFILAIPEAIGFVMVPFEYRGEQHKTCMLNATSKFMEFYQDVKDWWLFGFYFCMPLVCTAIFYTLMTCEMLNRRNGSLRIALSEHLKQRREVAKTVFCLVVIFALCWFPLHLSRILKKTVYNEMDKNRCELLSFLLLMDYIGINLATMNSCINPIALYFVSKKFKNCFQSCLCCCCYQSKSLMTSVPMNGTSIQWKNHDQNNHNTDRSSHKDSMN
It counts as cell membranes, Membrane. Conditions: cho-k1.

Series [3] in a line: DRUGMATRIX: Imidazoline I2, Central radioligand binding (ligand: [3H] Idazoxan). It counts as cell membranes, Rattus norvegicus, Wistar, Cerebral cortex, Membrane. Conditions: Not Active = under 50% inhibition at 10 µM.
Series [4] concerns the target T2, Amine oxidase [flavin-containing] A (Homo sapiens, UniProt P21397).
T2 sequence (P21397 whole entry): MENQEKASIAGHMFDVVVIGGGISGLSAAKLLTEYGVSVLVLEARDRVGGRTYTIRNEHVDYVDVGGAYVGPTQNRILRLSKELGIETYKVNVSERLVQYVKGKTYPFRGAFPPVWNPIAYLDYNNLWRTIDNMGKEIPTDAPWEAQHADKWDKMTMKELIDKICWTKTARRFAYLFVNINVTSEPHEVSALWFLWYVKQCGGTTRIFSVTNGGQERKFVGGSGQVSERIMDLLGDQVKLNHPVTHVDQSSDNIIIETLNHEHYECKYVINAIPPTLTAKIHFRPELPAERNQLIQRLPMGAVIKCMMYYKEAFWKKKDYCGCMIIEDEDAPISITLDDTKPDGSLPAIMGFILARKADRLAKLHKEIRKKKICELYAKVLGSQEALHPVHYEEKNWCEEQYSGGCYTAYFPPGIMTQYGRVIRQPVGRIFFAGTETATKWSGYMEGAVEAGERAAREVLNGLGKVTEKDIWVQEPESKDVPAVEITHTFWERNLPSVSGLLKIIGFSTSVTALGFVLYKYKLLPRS
In words: DRUGMATRIX: Monoamine Oxidase MAO-A enzyme inhibition (substrate: Kynuramine). More on the design: species or system BTI-TN-5B1-4. The following applies: bti-tn-5b1-4; Not Active = under 50% inhibition at 10 µM.

Series [5] is described as follows: DRUGMATRIX: Nicotinic Acetylcholine radioligand binding (ligand: [125I] Epibatidine). It counts as cell membranes, Membrane. The following applies: imr-32; Not Active = under 50% inhibition at 10 µM.
Series [6] addresses Protein kinase C alpha type (Homo sapiens, UniProt P17252). It counts as cell-based. Conditions: sf9.
Series [7] addresses Protein phosphatase 3 catalytic subunit alpha (Homo sapiens, UniProt Q08209). More on the design: species or system Escherichia coli.
Series [8] has as its target T3, Adenosine receptor A3 (Homo sapiens, UniProt P0DMS8).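 Further: radioligand binding assay with AB-MECA serving as the labeled ligand; in other assays of this panel Not Active means under 50% inhibition at 10 µM.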
T3 sequence (P0DMS8 whole entry): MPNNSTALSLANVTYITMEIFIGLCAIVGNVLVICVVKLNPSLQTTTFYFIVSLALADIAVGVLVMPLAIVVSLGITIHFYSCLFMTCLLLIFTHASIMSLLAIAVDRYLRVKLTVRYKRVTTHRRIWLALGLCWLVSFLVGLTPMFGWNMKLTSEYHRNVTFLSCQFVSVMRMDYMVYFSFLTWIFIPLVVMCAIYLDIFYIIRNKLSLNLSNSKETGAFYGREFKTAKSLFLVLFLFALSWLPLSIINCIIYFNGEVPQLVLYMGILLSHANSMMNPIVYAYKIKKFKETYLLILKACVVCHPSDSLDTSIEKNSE
It counts as cell membranes, CHO-K1, Membrane.

In series [9] the target is T4, Cytochrome P450 2A6 (Homo sapiens, UniProt P11509). Further: in other assays of this panel Not Active means under 50% inhibition at 10 µM.
T4 sequence (P11509 whole entry): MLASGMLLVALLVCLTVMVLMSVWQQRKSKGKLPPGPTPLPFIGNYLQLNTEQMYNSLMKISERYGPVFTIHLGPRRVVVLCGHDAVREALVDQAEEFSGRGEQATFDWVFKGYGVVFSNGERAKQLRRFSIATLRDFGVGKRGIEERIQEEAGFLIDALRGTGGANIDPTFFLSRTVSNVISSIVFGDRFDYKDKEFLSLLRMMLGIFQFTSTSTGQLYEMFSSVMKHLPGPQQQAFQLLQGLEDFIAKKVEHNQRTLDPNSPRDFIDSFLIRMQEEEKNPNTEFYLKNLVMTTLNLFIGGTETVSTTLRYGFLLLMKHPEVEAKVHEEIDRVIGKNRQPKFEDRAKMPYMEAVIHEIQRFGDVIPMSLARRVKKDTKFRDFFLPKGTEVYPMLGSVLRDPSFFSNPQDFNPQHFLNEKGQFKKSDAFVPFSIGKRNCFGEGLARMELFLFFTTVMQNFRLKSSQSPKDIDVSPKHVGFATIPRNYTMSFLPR
Conditions: bti-tn-5b1-4.

Chain of Sodium-dependent dopamine transporter (Q01959 whole entry): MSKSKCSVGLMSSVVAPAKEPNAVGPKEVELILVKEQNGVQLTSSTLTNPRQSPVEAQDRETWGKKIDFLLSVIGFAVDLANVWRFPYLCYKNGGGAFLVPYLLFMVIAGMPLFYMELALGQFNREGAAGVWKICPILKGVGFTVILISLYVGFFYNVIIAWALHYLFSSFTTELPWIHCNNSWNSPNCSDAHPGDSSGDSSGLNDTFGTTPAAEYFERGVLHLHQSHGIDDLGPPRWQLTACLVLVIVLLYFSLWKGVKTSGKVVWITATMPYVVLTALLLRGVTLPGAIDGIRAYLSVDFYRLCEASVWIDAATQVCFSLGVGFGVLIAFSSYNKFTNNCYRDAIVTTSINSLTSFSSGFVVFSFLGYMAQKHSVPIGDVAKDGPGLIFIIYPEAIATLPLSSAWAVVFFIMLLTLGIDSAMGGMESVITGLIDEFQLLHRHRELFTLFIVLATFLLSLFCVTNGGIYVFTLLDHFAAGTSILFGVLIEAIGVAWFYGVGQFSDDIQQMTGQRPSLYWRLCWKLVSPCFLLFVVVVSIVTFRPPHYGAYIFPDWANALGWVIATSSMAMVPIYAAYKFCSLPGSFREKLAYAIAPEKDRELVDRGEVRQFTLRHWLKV

What is called IC50 is the concentration at which inhibition is half-maximal. As usually defined, the Ki is the dissociation constant of the complex between target and ligand, obtained from inhibition or displacement. On to `CC1=C(CC(=O)O)c2cc(F)ccc2/C1=C\c1ccc([S+](C)[O-])cc1` (stereo unspecified), for which the IC50 entry in series [1] (cho-k1), in [2], in series [3], in series [4], in series [5] and in series [6] was “Not Active” in each case. Moreover, the IC50 entry in series [7], in series [8] (cho-k1) and in [9] was “Not Active” each time. The Ki result in [3], in series [5] and in series [9] was “Not Active” throughout.

As to `N[C@H](CSC(=S)NCc1ccccc1)C(=O)O`, the IC50 result in series [1] (cho-k1), in [2], in series [3], in series [4], in series [5] and in series [6] was “Not Active” each time. Further, the IC50 entry in series [7], in series [8] (cho-k1) and in series [9] was “Not Active” throughout. Also, the inhibition constant (Ki) entry in series [3], in series [5] and in series [9] was “Not Active” each time.

With `CC(=O)N[C@@H]1[C@H](Oc2c3cc4cc2Oc2ccc(cc2Cl)[C@@H](O[C@@H]2O[C@@H](CO)[C@@H](O)[C@H](O)[C@@H]2NC(C)=O)[C@@H]2NC(=O)[C@H](NC(=O)[C@@H]4NC(=O)[C@H]4NC(=O)[C@@H](Cc5ccc(c(Cl)c5)O3)NC(=O)[C@H](N)c3ccc(O)c(c3)Oc3cc(O)cc4c3)c3ccc(O)c(c3)-c3c(O[C@H]4O[C@H](CO)[C@@H](O)[C@@H](O)[C@@H]4O)cc(O)cc3[C@@H](C(=O)O)NC2=O)O[C@@H](CO)[C@@H](O)[C@@H]1O`, the IC50 entry in series [1] (cho-k1), in [2], in series [3], in series [4], in [5] and in [6] was “Not Active” each time. In addition, the IC50 result in series [7], in series [8] (cho-k1) and in [9] was “Not Active” throughout. The inhibitory constant (Ki) result in series [3], in series [5] and in series [9] was “Not Active” each time.

For the compound `CN1CCC(=C2c3ccccc3C=Cc3ccccc32)CC1` [CYPROHEPTADINE], the IC50 entry in series [1] (cho-k1), in series [2], in [4], in series [6], in series [7] and in series [8] (cho-k1) was “Not Active” in each case. The IC50 result in series [9] is given as “Not Active”. Besides, the Ki result in series [9] is “Not Active”.

In the case of `CC(=O)N1CCN(c2ccc(OCC3COC(Cn4ccnc4)(c4ccc(Cl)cc4Cl)O3)cc2)CC1` (stereo unspecified) [KETOCONAZOLE], the IC50 is 23500 nM in series [1] (read-out: IC50); “Not Active” in series [2]; “Not Active” in [3]; “Not Active” in series [4]; “Not Active” in series [5]; “Not Active” in series [6]. Also, the IC50 entry in series [7], in series [8] (cho-k1) and in series [9] was “Not Active” throughout. In addition, the Ki is 18700 nM in series [1], “Not Active” in series [3], “Not Active” in series [5] and “Not Active” in [9].

Consider `COCCCOc1ccnc(C[S+]([O-])c2nc3ccccc3[nH]2)c1C` (stereo unspecified) [RABEPRAZOLE], for which the IC50 entry in series [1] (cho-k1), in series [2], in series [3], in [4], in [5] and in series [6] was “Not Active” each time. In addition, the IC50 result is “Not Active” in series [7], 3220 nM in [8] (read-out: IC50) and “Not Active” in [9]. Moreover, the Ki entry was “Not Active” in series [3], “Not Active” in series [5], 1820 nM in series [8] (read-out: Ki) and “Not Active” in [9].

`CNC(=C[N+](=O)[O-])NCCSCc1ccc(CN(C)C)o1` [RANITIDINE]: the IC50 entry in [1] (cho-k1), in series [2], in [3], in series [4], in [5] and in [6] was “Not Active” in each case. Besides, the IC50 entry in series [7], in [8] (cho-k1) and in series [9] was “Not Active” in each case. Moreover, the Ki entry in series [3], in series [5] and in series [9] was “Not Active” throughout.

For `CO[C@H]1/C=C/O[C@@]2(C)Oc3c(C)c(O)c4c(c3C2=O)C2=NC3(CCN(CC(C)C)CC3)NC2=C(NC(=O)/C(C)=C\C=C\[C@H](C)[C@H](O)[C@@H](C)[C@@H](O)[C@@H](C)[C@H](OC(C)=O)[C@@H]1C)C4=O` [RIFABUTIN], the IC50 entry in series [1] (cho-k1), in series [2], in series [3], in [4], in [5] and in series [6] was “Not Active” throughout. The IC50 result in series [7], in series [8] (cho-k1) and in [9] was “Not Active” each time. Besides, the Ki entry in series [3], in [5] and in series [9] was “Not Active” each time.

`CC(C)CC(N(C)C)C1(c2ccc(Cl)cc2)CCC1` (stereo unspecified) [SIBUTRAMINE]: the IC50 in [1] (read-out: IC50) is 632 nM; in series [2], “Not Active”; in series [3], “Not Active”; in series [4], “Not Active”; in series [5], “Not Active”; in series [6], “Not Active”. Also, the IC50 result in series [7], in series [8] (cho-k1) and in series [9] was “Not Active” each time. Moreover, the Ki in [1] is 502 nM; in series [3] it was “Not Active”; in [5], “Not Active”; in series [9], “Not Active”.

`[H]/N=C(/N)N[C@H]1[C@H](O)[C@@H](O)[C@H](O[C@@H]2O[C@@H](C)[C@](O)(C=O)[C@H]2O[C@@H]2O[C@@H](CO)[C@H](O)[C@@H](O)[C@@H]2NC)[C@@H](N/C(N)=N\[H])[C@@H]1O` [STREPTOMYCIN]: the IC50 entry in series [1] (cho-k1), in series [2], in series [3], in series [4], in series [5] and in [6] was “Not Active” throughout. The half-maximal inhibitory concentration (IC50) result in series [7], in series [8] (cho-k1) and in series [9] was “Not Active” in each case. For the same compound, the inhibitory constant (Ki) result in series [3], in series [5] and in series [9] was “Not Active” throughout.

Take `COc1cc(NS(=O)(=O)c2ccc(N)cc2)nc(OC)n1` [SULFADIMETHOXINE]: the IC50 entry in [1] (cho-k1), in series [2], in [3], in [4], in [5] and in [6] was “Not Active” in each case. Besides, the IC50 result in [7], in series [8] (cho-k1) and in series [9] was “Not Active” each time. Also, the Ki result in series [3], in [5] and in series [9] was “Not Active” in each case.
